ChEMBL document CHEMBL3045039, “Computational studies of new 1,4-dihydropyridines containing 4-(5)-chloro-2-ethyl-5-(4)-imidazolyl substituent: QSAR and docking” (Med Chem Res, 2010)
Blank lines part the entries; values can stand above or below the compound they belong to.

Target: Voltage-dependent L-type calcium channel subunit alpha-1C (Cavia porcellus, UniProt O35505)
Experiment: Inhibition of calcium channel in Cavia porcellus (guinea pig) ileum assessed as inhibition of KCl-induced contraction
Type: tissue-based

Sequence of Voltage-dependent L-type calcium channel subunit alpha-1C (O35505 whole entry): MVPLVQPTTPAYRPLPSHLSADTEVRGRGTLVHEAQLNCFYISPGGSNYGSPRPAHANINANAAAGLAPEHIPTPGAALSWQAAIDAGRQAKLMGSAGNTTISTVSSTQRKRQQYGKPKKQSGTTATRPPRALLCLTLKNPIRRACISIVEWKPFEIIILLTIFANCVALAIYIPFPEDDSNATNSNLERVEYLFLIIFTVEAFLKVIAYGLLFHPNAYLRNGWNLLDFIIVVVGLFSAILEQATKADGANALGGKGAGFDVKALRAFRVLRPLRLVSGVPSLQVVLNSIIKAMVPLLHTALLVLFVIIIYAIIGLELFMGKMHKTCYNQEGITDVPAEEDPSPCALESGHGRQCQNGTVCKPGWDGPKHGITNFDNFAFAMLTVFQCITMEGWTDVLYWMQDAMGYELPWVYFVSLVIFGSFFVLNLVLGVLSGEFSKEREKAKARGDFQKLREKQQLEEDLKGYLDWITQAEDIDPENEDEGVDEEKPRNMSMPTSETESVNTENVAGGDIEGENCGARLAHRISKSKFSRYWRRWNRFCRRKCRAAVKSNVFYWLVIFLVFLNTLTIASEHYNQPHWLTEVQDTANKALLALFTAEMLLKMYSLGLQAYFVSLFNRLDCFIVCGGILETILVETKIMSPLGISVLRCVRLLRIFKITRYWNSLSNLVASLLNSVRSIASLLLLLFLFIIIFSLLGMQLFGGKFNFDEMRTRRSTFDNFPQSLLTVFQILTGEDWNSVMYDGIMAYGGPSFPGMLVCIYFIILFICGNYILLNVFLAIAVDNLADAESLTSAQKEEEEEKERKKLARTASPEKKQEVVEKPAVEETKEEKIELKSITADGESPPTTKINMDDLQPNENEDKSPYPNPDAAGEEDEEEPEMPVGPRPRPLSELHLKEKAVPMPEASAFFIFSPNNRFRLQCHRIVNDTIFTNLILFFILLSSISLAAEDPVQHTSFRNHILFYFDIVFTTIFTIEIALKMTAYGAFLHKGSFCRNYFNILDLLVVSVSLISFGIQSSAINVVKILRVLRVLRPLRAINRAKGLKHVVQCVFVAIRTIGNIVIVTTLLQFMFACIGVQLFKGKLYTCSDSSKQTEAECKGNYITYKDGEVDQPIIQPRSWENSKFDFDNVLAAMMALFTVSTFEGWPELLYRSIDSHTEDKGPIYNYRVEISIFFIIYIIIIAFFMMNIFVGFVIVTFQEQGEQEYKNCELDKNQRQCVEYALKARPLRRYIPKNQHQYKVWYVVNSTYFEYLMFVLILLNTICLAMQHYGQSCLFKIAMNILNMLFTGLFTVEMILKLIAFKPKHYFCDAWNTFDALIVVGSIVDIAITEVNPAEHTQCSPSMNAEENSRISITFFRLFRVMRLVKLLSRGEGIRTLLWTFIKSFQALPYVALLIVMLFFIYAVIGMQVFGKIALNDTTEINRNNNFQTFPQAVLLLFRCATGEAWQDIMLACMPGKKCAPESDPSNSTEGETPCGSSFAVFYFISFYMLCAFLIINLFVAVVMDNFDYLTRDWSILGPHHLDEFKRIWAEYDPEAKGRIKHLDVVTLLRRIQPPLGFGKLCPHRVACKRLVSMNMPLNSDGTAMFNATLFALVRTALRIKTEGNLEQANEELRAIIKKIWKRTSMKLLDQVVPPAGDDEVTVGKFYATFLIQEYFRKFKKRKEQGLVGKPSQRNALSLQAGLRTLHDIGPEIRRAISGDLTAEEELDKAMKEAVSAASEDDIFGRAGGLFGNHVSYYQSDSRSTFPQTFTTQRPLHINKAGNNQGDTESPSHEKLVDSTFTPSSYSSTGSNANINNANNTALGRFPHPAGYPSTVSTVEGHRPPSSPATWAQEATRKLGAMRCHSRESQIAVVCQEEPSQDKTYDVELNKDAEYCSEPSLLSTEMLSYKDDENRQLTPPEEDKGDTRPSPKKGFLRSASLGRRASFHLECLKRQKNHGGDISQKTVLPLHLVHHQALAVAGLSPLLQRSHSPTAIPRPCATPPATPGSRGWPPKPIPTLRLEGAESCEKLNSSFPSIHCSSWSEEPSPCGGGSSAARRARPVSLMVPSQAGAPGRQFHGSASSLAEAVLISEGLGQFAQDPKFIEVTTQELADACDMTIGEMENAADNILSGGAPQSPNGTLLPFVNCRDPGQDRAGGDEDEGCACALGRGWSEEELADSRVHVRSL

Compound: CCc1nc(C2C(C(=O)OCc3ccccc3)=C(C)NC(C)=C2C(=O)OCc2ccccc2)c(Cl)[nH]1
IC50: 0.906 nM

Compound: CCc1nc(Cl)c(C2C(C(=O)OC)=C(C)NC(C)=C2C(=O)OC)[nH]1
IC50: 0.596 nM

Compound: CCc1nc(Cl)c(C2C(C(=O)OC(C)C)=C(C)NC(C)=C2C(=O)OC(C)C)[nH]1
IC50: 0.748 nM

Compound: CCc1nc(Cl)c(C2C(C(=O)OCC(C)C)=C(C)NC(C)=C2C(=O)OCC(C)C)[nH]1
IC50: 2.64 nM

Compound: CCc1nc(Cl)c(C2C(C(=O)OC(C)(C)C)=C(C)NC(C)=C2C(=O)OC(C)(C)C)[nH]1
IC50: 34.2 nM

Compound: CCOC(=O)C1=C(C)NC(C)=C(C(=O)OC)C1c1[nH]c(CC)nc1Cl (stereo not drawn)
IC50: 2.02 nM

Compound: CCc1nc(Cl)c(C2C(C(=O)OC)=C(C)NC(C)=C2C(=O)OC(C)(C)C)[nH]1 (stereo not drawn)
IC50: 50.8 nM

Compound: CCc1nc(Cl)c(C2C(C(=O)OC)=C(C)NC(C)=C2C(=O)OCc2ccccc2)[nH]1 (stereo not drawn)
IC50: 1.75 nM

Compound: CCOC(=O)C1=C(C)NC(C)=C(C(=O)OC(C)(C)C)C1c1[nH]c(CC)nc1Cl (stereo not drawn)
IC50: 99.8 nM

Compound: CCOC(=O)C1=C(C)NC(C)=C(C(=O)OCC2CCCCC2)C1c1[nH]c(CC)nc1Cl (stereo not drawn)
IC50: 1.07 nM

Compound: CCOC(=O)C1=C(C)NC(C)=C(C(=O)OCc2ccccc2)C1c1[nH]c(CC)nc1Cl (stereo not drawn)
IC50: 2.66 nM

Stronger by IC50, values ahead:

IC50: 0.0437 nM
Compound: CCc1nc(C2C(C(=O)OCCc3ccccc3)=C(C)NC(C)=C2C(=O)OCCc2ccccc2)c(Cl)[nH]1

IC50: 0.0309 nM
Compound: CCc1nc(C2C(C(=O)OC)=C(C)NC(C)=C2C(=O)OCCc2ccccc2)c(Cl)[nH]1 (stereo not drawn)

IC50: 0.0457 nM
Compound: CCOC(=O)C1=C(C)NC(C)=C(C(=O)OCCc2ccccc2)C1c1nc(CC)[nH]c1Cl (stereo not drawn)

IC50: 0.158 nM
Compound: CCOC(=O)C1=C(C)NC(C)=C(C(=O)OCC)C1c1[nH]c(CC)nc1Cl

IC50: 0.13 nM
Compound: CCCOC(=O)C1=C(C)NC(C)=C(C(=O)OCCC)C1c1[nH]c(CC)nc1Cl

IC50: 0.212 nM
Compound: CCc1nc(Cl)c(C2C(C(=O)OC3CCCC3)=C(C)NC(C)=C2C(=O)OC2CCCC2)[nH]1

IC50: 0.132 nM
Compound: CCc1nc(Cl)c(C2C(C(=O)OC3CCCCC3)=C(C)NC(C)=C2C(=O)OC2CCCCC2)[nH]1

IC50: 0.0668 nM
Compound: CCc1nc(Cl)c(C2C(C(=O)OCCCc3ccccc3)=C(C)NC(C)=C2C(=O)OCCCc2ccccc2)[nH]1

IC50: 0.146 nM
Compound: CCCOC(=O)C1=C(C)NC(C)=C(C(=O)OC)C1c1[nH]c(CC)nc1Cl (stereo not drawn)

IC50: 0.488 nM
Compound: CCc1nc(Cl)c(C2C(C(=O)OC)=C(C)NC(C)=C2C(=O)OC(C)C)[nH]1 (stereo not drawn)

IC50: 0.543 nM
Compound: CCCOC(=O)C1=C(C)NC(C)=C(C(=O)OCC)C1c1[nH]c(CC)nc1Cl (stereo not drawn)

IC50: 0.564 nM
Compound: CCOC(=O)C1=C(C)NC(C)=C(C(=O)OC(C)C)C1c1[nH]c(CC)nc1Cl (stereo not drawn)
